Data: the supplement of paper PMC11665569

Tests used:
Experiment in all cases: relative viability (fraction of vehicle control); higher = more viable / less inhibited
Conditions in all cases: treatment time: 5 days
SW1573 = test system: SW1573
Description: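 CCK-8 viability of SW1573 cells transfected with control, YAP/TAZ or TEAD1-4 siRNAs and treated with KRAS G12C inhibitors for 5 days. Values are normalised to vehicle control.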

H1373 = test system: H1373
Description: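 CCK-8 viability of H1373 cells with empty vector or constitutively active YAP S127A, treated with KRAS G12C inhibitors for 5 days, normalised to vehicle control.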

H2030 = test system: H2030
Description: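 CCK-8 viability of H2030 cells transfected with control, YAP/TAZ or TEAD1-4 siRNAs and treated with KRAS G12C inhibitors for 5 days. Values are normalised to vehicle control.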

H358 = test system: H358
Description: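 CCK-8 viability of H358 cells with empty vector or constitutively active YAP S127A, treated with KRAS G12C inhibitors for 5 days. Absorbance at 450 nm normalised to vehicle control.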

C=CC(=O)N1CCN(c2nc(=O)n(-c3c(C)ccnc3C(C)C)c3nc(-c4c(O)cccc4F)c(F)cc23)[C@@H](C)C1 [AMG510]
relative viability
Conditions | H358 | H1373 | H2030 | SW1573
log10 concentration (uM): 0, ectopic expression: YAP S127A | 0.42 | 0.575 | – | –
log10 concentration (uM): 0, ectopic expression: empty vector (YAP experiment) | 0.15 | 0.267 | – | –
log10 concentration (uM): 0, siRNA knockdown: TEAD1-4 siRNA 1 | – | – | 0.446 | 0.313
log10 concentration (uM): 0, siRNA knockdown: TEAD1-4 siRNA 2 | – | – | 0.411 | 0.433
log10 concentration (uM): 0, siRNA knockdown: YAP/TAZ siRNA 1 | – | – | 0.25 | 0.262
log10 concentration (uM): 0, siRNA knockdown: YAP/TAZ siRNA 2 | – | – | 0.224 | 0.182
log10 concentration (uM): 0, siRNA knockdown: negative control siRNA | – | – | 0.714 | 0.809
log10 concentration (uM): 1, ectopic expression: YAP S127A | 0.46 | 0.47 | – | –
log10 concentration (uM): 1, ectopic expression: empty vector (YAP experiment) | 0.183 | 0.245 | – | –
log10 concentration (uM): 1, siRNA knockdown: TEAD1-4 siRNA 1 | – | – | 0.345 | 0.397
log10 concentration (uM): 1, siRNA knockdown: TEAD1-4 siRNA 2 | – | – | 0.325 | 0.515
log10 concentration (uM): 1, siRNA knockdown: YAP/TAZ siRNA 1 | – | – | 0.257 | 0.554
log10 concentration (uM): 1, siRNA knockdown: YAP/TAZ siRNA 2 | – | – | 0.283 | 0.357
log10 concentration (uM): 1, siRNA knockdown: negative control siRNA | – | – | 0.56 | 0.782
log10 concentration (uM): 1.301029996, ectopic expression: YAP S127A | 0.327 | 0.25 | – | –
log10 concentration (uM): 1.301029996, ectopic expression: empty vector (YAP experiment) | 0.172 | 0.12 | – | –
log10 concentration (uM): 1.301029996, siRNA knockdown: TEAD1-4 siRNA 1 | – | – | 0.193 | 0.138
log10 concentration (uM): 1.301029996, siRNA knockdown: TEAD1-4 siRNA 2 | – | – | 0.209 | 0.288
log10 concentration (uM): 1.301029996, siRNA knockdown: YAP/TAZ siRNA 1 | – | – | 0.148 | 0.337
log10 concentration (uM): 1.301029996, siRNA knockdown: YAP/TAZ siRNA 2 | – | – | 0.179 | 0.257
log10 concentration (uM): 1.301029996, siRNA knockdown: negative control siRNA | – | – | 0.403 | 0.461
log10 concentration (uM): -1, ectopic expression: YAP S127A | 0.453 | 0.581 | – | –
log10 concentration (uM): -1, ectopic expression: empty vector (YAP experiment) | 0.256 | 0.351 | – | –
log10 concentration (uM): -1, siRNA knockdown: TEAD1-4 siRNA 1 | – | – | 0.504 | 0.338
log10 concentration (uM): -1, siRNA knockdown: TEAD1-4 siRNA 2 | – | – | 0.556 | 0.365
log10 concentration (uM): -1, siRNA knockdown: YAP/TAZ siRNA 1 | – | – | 0.181 | 0.164
log10 concentration (uM): -1, siRNA knockdown: YAP/TAZ siRNA 2 | – | – | 0.181 | 0.111
log10 concentration (uM): -1, siRNA knockdown: negative control siRNA | – | – | 0.737 | 0.783
log10 concentration (uM): -1.30103, ectopic expression: YAP S127A | 0.52 | 0.619 | – | –
log10 concentration (uM): -1.30103, ectopic expression: empty vector (YAP experiment) | 0.433 | 0.407 | – | –
log10 concentration (uM): -1.30103, siRNA knockdown: TEAD1-4 siRNA 1 | – | – | 0.514 | 0.346
log10 concentration (uM): -1.30103, siRNA knockdown: TEAD1-4 siRNA 2 | – | – | 0.445 | 0.421
log10 concentration (uM): -1.30103, siRNA knockdown: YAP/TAZ siRNA 1 | – | – | 0.207 | 0.183
log10 concentration (uM): -1.30103, siRNA knockdown: YAP/TAZ siRNA 2 | – | – | 0.212 | 0.147
log10 concentration (uM): -1.30103, siRNA knockdown: negative control siRNA | – | – | 0.773 | 0.792
log10 concentration (uM): -2, ectopic expression: YAP S127A | 0.727 | 0.636 | – | –
log10 concentration (uM): -2, ectopic expression: empty vector (YAP experiment) | 0.822 | 0.624 | – | –
log10 concentration (uM): -2, siRNA knockdown: TEAD1-4 siRNA 1 | – | – | 0.773 | 0.562
log10 concentration (uM): -2, siRNA knockdown: TEAD1-4 siRNA 2 | – | – | 0.606 | 0.502
log10 concentration (uM): -2, siRNA knockdown: YAP/TAZ siRNA 1 | – | – | 0.348 | 0.323
log10 concentration (uM): -2, siRNA knockdown: YAP/TAZ siRNA 2 | – | – | 0.333 | 0.244
log10 concentration (uM): -2, siRNA knockdown: negative control siRNA | – | – | 0.883 | 0.886
log10 concentration (uM): -2.30103, ectopic expression: YAP S127A | 0.753 | 0.71 | – | –
log10 concentration (uM): -2.30103, ectopic expression: empty vector (YAP experiment) | 0.822 | 0.68 | – | –
log10 concentration (uM): -2.30103, siRNA knockdown: TEAD1-4 siRNA 1 | – | – | 0.837 | 0.672
log10 concentration (uM): -2.30103, siRNA knockdown: TEAD1-4 siRNA 2 | – | – | 0.67 | 0.725
log10 concentration (uM): -2.30103, siRNA knockdown: YAP/TAZ siRNA 1 | – | – | 0.471 | 0.437
log10 concentration (uM): -2.30103, siRNA knockdown: YAP/TAZ siRNA 2 | – | – | 0.457 | 0.37
log10 concentration (uM): -2.30103, siRNA knockdown: negative control siRNA | – | – | 0.909 | 0.934
log10 concentration (uM): -3, ectopic expression: YAP S127A | 0.96 | 0.834 | – | –
log10 concentration (uM): -3, ectopic expression: empty vector (YAP experiment) | 0.828 | 0.937 | – | –
log10 concentration (uM): -3, siRNA knockdown: TEAD1-4 siRNA 1 | – | – | 0.939 | 0.815
log10 concentration (uM): -3, siRNA knockdown: TEAD1-4 siRNA 2 | – | – | 0.875 | 0.893
log10 concentration (uM): -3, siRNA knockdown: YAP/TAZ siRNA 1 | – | – | 0.812 | 0.615
log10 concentration (uM): -3, siRNA knockdown: YAP/TAZ siRNA 2 | – | – | 0.688 | 0.587
log10 concentration (uM): -3, siRNA knockdown: negative control siRNA | – | – | 0.969 | 1
log10 concentration (uM): -4, ectopic expression: YAP S127A | 0.873 | 0.986 | – | –
log10 concentration (uM): -4, ectopic expression: empty vector (YAP experiment) | 1.01 | 1.01 | – | –
log10 concentration (uM): -4, siRNA knockdown: TEAD1-4 siRNA 1 | – | – | 1.05 | 0.98
log10 concentration (uM): -4, siRNA knockdown: TEAD1-4 siRNA 2 | – | – | 0.914 | 0.974
log10 concentration (uM): -4, siRNA knockdown: YAP/TAZ siRNA 1 | – | – | 1.09 | 0.969
log10 concentration (uM): -4, siRNA knockdown: YAP/TAZ siRNA 2 | – | – | 1.04 | 0.928
log10 concentration (uM): -4, siRNA knockdown: negative control siRNA | – | – | 0.955 | 1.02
